Test results taken from PubChem BioAssay (NCI).
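Dose response: 5 concentrations. Exposure: 48 h. Format: 96-well plates. Endpoint: linear interpolation; highest concentration if not reached. Here, GI50 denotes the concentration required for 50% inhibition of growth. TGI: total growth inhibition.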

Assays:
Experiment in all cases: NCI anticancer screen, dose series, 48 h
[1] = system: CAKI-1 renal
[2] = system: PC-3 prostate
[3] = system: UO-31 renal
[4] = system: MDA-MB-435
[5] = system: OVCAR-4 ovarian
[6] = system: RPMI-8226 leukemia
[7] = system: U251 CNS
[8] = system: OVCAR-5 ovarian
[9] = system: K-562 leukemia
[10] = system: UACC-62 melanoma
[11] = system: HS 578T breast
[12] = system: HCT-15 colon
[13] = system: CCRF-CEM leukemia
[14] = system: A549 NSCLC
[15] = system: SW-620 colon
[16] = system: RXF 393 renal
[17] = system: HOP-62 NSCLC
[18] = system: NCI/ADR-RES ovarian
[19] = system: BT-549 breast
[20] = system: T-47D breast
[21] = system: SNB-19 CNS
[22] = system: SF-539 CNS
[23] = system: OVCAR-8 ovarian
[24] = system: KM12 colon
[25] = system: SF-295 CNS
[26] = system: HCC-2998 colon
[27] = system: M14 melanoma
[28] = system: DU-145 prostate
[29] = system: SK-MEL-5 melanoma
[30] = system: A498 renal
[31] = system: HT29 colon
[32] = system: NCI-H522 lung
[33] = system: OVCAR-3 ovarian
[34] = system: TK-10 renal
[35] = system: HOP-92 NSCLC
[36] = system: HCT-116 colon
[37] = system: MOLT-4 leukemia
[38] = system: SF-268 CNS
[39] = system: EKVX NSCLC
[40] = system: NCI-H226 lung
[41] = system: SNB-75 CNS
[42] = system: SR leukemia
[43] = system: HL-60(TB) leukemia
[44] = system: SK-OV-3 ovarian
[45] = system: SK-MEL-2 melanoma
[46] = system: UACC-257 melanoma
[47] = system: COLO 205 colon
[48] = system: 786-0 renal
[49] = system: SN12C renal
[50] = system: IGROV1 ovarian
[51] = system: NCI-H23 lung
[52] = system: MDA-MB-231 breast
[53] = system: ACHN renal
[54] = system: MALME-3M melanoma
[55] = system: SK-MEL-28 melanoma
[56] = system: MCF7 breast
[57] = system: LOX IMVI melanoma
[58] = system: NCI-H460 lung

`COc1cc(NC(N)=NCCC(C)(C)c2ccc(C(F)(F)F)cc2)ncc1C#N` gave a GI50 [1] of 1.42 µM, a TGI [1] of 2.74 µM and a GI50 [2] of 1.55 µM. For the same molecule, the TGI [2] was 3.17 µM, the GI50 [3] was 1.34 µM and the TGI [3] was 2.66 µM. For the same molecule, the GI50 [4] was 1.78 µM, the TGI [4] was 3.25 µM and the GI50 [5] was 1.82 µM. The TGI [5] was 4.12 µM, the GI50 [6] was 1.27 µM and the TGI [6] was 3.3 µM. The GI50 [7] was 1.67 µM, the TGI [7] was 3.05 µM and the GI50 [8] was 1.97 µM. The TGI [8] was 3.76 µM, the GI50 [9] was 1.42 µM and the TGI [9] was 5.02 µM. The GI50 [10] was 1.71 µM, the TGI [10] was 3.1 µM and the GI50 [11] was 2.14 µM. The TGI [11] was 4.55 µM, the GI50 [12] was 1.53 µM and the TGI [12] was 2.9 µM. It also gave a GI50 [13] of 2.06 µM, a TGI [13] of 4.93 µM and a GI50 [14] of 1.61 µM. For the same molecule, the TGI [14] was 3.06 µM, the GI50 [15] was 2.01 µM and the TGI [15] was 4.14 µM. It also gave a GI50 [16] of 1.79 µM, a TGI [16] of 3.24 µM and a GI50 [17] of 1.78 µM. The TGI [17] was 3.25 µM, the GI50 [18] was 1.8 µM and the TGI [18] was 3.29 µM. It also gave a GI50 [19] of 1.74 µM, a TGI [19] of 3.21 µM and a GI50 [20] of 1.51 µM. The TGI [20] was 3.5 µM, the GI50 [21] was 1.79 µM and the TGI [21] was 3.44 µM. The GI50 [22] was 1.87 µM, the TGI [22] was 3.33 µM and the GI50 [23] was 1.7 µM. The TGI [23] was 3.18 µM, the GI50 [24] was 1.8 µM and the TGI [24] was 3.38 µM. For the same molecule, the GI50 [25] was 1.6 µM, the TGI [25] was 3.06 µM and the GI50 [26] was 1.89 µM. It also gave a TGI [26] of 3.34 µM, a GI50 [27] of 1.7 µM and a TGI [27] of 3.24 µM. It also gave a GI50 [28] of 1.93 µM, a TGI [28] of 3.51 µM and a GI50 [29] of 1.58 µM. It also gave a TGI [29] of 2.94 µM, a GI50 [30] of 1.88 µM and a TGI [30] of 3.69 µM. For the same molecule, the GI50 [31] was 1.62 µM, the TGI [31] was 3.14 µM and the GI50 [32] was 1.44 µM. For the same molecule, the TGI [32] was 2.97 µM, the GI50 [33] was 1.79 µM and the TGI [33] was 3.5 µM. The GI50 [34] was 1.51 µM, the TGI [34] was 2.88 µM and the GI50 [35] was 1.3 µM. For the same molecule, the TGI [35] was 2.74 µM, the GI50 [36] was 1.51 µM and the TGI [36] was 2.9 µM. For the same molecule, the GI50 [37] was 1.84 µM, the TGI [37] was 5.25 µM and the GI50 [38] was 1.97 µM. The TGI [38] was 4.27 µM, the GI50 [39] was 1.4 µM and the TGI [39] was 2.87 µM. The GI50 [40] was 1.6 µM, the TGI [40] was 3.36 µM and the GI50 [41] was 1.66 µM. It also gave a TGI [41] of 3.26 µM, a GI50 [42] of 1.7 µM and a TGI [42] of 4.06 µM. For the same molecule, the GI50 [43] was 0.278 µM, the TGI [43] was 0.868 µM and the GI50 [44] was 2.13 µM. For the same molecule, the TGI [44] was 4.06 µM, the GI50 [45] was 1.84 µM and the TGI [45] was 3.38 µM. It also gave a GI50 [46] of 1.77 µM, a TGI [46] of 3.32 µM and a GI50 [47] of 1.65 µM. It also gave a TGI [47] of 3.21 µM, a GI50 [48] of 1.71 µM and a TGI [48] of 3.14 µM. It also gave a GI50 [49] of 1.47 µM, a TGI [49] of 2.82 µM and a GI50 [50] of 1.68 µM. The TGI [50] was 3.39 µM, the GI50 [51] was 1.53 µM and the TGI [51] was 3.15 µM. It also gave a GI50 [52] of 1.8 µM, a TGI [52] of 3.34 µM and a GI50 [53] of 1.65 µM. For the same molecule, the TGI [53] was 3.01 µM, the GI50 [54] was 1.82 µM and the TGI [54] was 3.47 µM. It also gave a GI50 [55] of 2.01 µM, a TGI [55] of 3.52 µM and a GI50 [56] of 1.45 µM. The TGI [56] was 2.98 µM, the GI50 [57] was 1.58 µM and the TGI [57] was 2.92 µM. The GI50 [58] was 1.83 µM and the TGI [58] was 3.55 µM.
`O=c1cccc(C#CC#C/C=C/CO)o1` was tested, and the GI50 [1] was 1.91 µM, the TGI [1] was 3.6 µM and the GI50 [2] was 2.94 µM. It also gave a TGI [2] of 11.3 µM, a GI50 [3] of 2.6 µM and a GI50 [4] of 1.99 µM. It also gave a TGI [4] of 4.69 µM, a GI50 [5] of 3.1 µM and a TGI [5] of over 100 µM. The GI50 [6] was 2.63 µM, the TGI [6] was over 100 µM and the GI50 [7] was 1.89 µM. For the same molecule, the TGI [7] was 3.84 µM, the GI50 [8] was 2.09 µM and the TGI [8] was 4.34 µM. The GI50 [9] was 4.92 µM, the TGI [9] was over 100 µM and the GI50 [10] was 1.68 µM. The TGI [10] was 3.39 µM, the GI50 [11] was 6.87 µM and the TGI [11] was 39.9 µM. The GI50 [12] was 1.98 µM, the TGI [12] was 5.15 µM and the GI50 [14] was 3.65 µM. The TGI [14] was 13.1 µM, the GI50 [15] was 3.3 µM and the TGI [15] was over 24.9 µM. The GI50 [16] was 2.38 µM, the TGI [16] was 7.03 µM and the GI50 [17] was 2.08 µM. The TGI [17] was 4.14 µM, the GI50 [18] was 2.52 µM and the GI50 [19] was 2.1 µM. It also gave a TGI [19] of 5.17 µM, a GI50 [20] of 2.36 µM and a TGI [20] of 4.46 µM. For the same molecule, the GI50 [21] was 3.06 µM, the TGI [21] was 10.7 µM and the GI50 [22] was 3.19 µM. For the same molecule, the TGI [22] was 8.26 µM, the GI50 [23] was 2.37 µM and the TGI [23] was 6.62 µM. It also gave a GI50 [24] of 1.64 µM, a TGI [24] of 4.34 µM and a GI50 [25] of 5.84 µM. The TGI [25] was 18.8 µM, the GI50 [26] was 2.09 µM and the TGI [26] was 3.52 µM. It also gave a GI50 [27] of 4.12 µM, a GI50 [28] of 3.4 µM and a TGI [28] of 12.4 µM. For the same molecule, the GI50 [29] was 2.48 µM, the TGI [29] was 6.24 µM and the GI50 [30] was 7.57 µM. It also gave a TGI [30] of 22.7 µM, a GI50 [31] of 3.89 µM and a TGI [31] of over 100 µM. It also gave a GI50 [32] of 1.45 µM, a GI50 [33] of 2.33 µM and a TGI [33] of 6.12 µM. For the same molecule, the GI50 [34] was 2.21 µM, the TGI [34] was 4.66 µM and the GI50 [35] was 2.74 µM. For the same molecule, the TGI [35] was 5.85 µM, the GI50 [36] was 5.71 µM and the TGI [36] was over 100 µM. For the same molecule, the GI50 [37] was 9.1 µM, the TGI [37] was over 100 µM and the GI50 [38] was 2.44 µM. The TGI [38] was 17.1 µM, the GI50 [39] was 2.77 µM and the TGI [39] was 6.47 µM. The GI50 [40] was 1.31 µM, the TGI [40] was 7.68 µM and the GI50 [41] was 17 µM. For the same molecule, the TGI [41] was 92.9 µM, the GI50 [42] was over 100 µM and the TGI [42] was over 100 µM. The GI50 [43] was 3.17 µM, the TGI [43] was over 100 µM and the GI50 [44] was 10.8 µM. It also gave a TGI [44] of 22.8 µM, a GI50 [45] of 7.52 µM and a TGI [45] of over 31.3 µM. The GI50 [46] was 2.07 µM, the TGI [46] was 4.7 µM and the GI50 [47] was 2.02 µM. The TGI [47] was 3.56 µM, the GI50 [48] was 3.72 µM and the TGI [48] was over 27.5 µM. It also gave a GI50 [49] of 1.74 µM, a TGI [49] of 4.19 µM and a GI50 [50] of 2.82 µM. The GI50 [51] was 1.73 µM, the TGI [51] was 3.18 µM and the GI50 [52] was 1.87 µM. It also gave a TGI [52] of 4.03 µM, a GI50 [53] of 2.13 µM and a TGI [53] of 4.86 µM. It also gave a GI50 [55] of 2.75 µM, a TGI [55] of 10.9 µM and a GI50 [56] of 2.23 µM. For the same molecule, the GI50 [57] was 1.55 µM, the TGI [57] was 3.32 µM and the GI50 [58] was 2.88 µM.
